Consider 19 compounds from patent publication US20250114338A1, “TETRAHYDRO-PYRIDO[3,4-b]INDOLE ESTROGEN RECEPTOR MODULATORS AND USES THEREOF” (Genentech, Inc., priority 2014, published 2025).

One assay relates to ER-alpha MCF7. As to the kind of experiment: ER-alpha MCF7 HCS EC50; stated as measured by in vitro cell proliferation assays of Examples 902 and 903. The assay is classed as cell-based. The settings on record: Homo sapiens, MCF7, MCF7 cells; Table 1. The text has this: The CellTiter-Glo® Luminescent Cell Viability Assay is a homogeneous method to determine the number of viable cells in culture based on quantitation of the ATP present, which signals the presence of metabolically active cells. The CellTiter-Glo® Assay is designed for use with multiwell plate formats, making it ideal for automated high-throughput screening (HTS), cell proliferation and cytotoxicity assays. The homogeneous assay procedure involves adding a single reagent (CellTiter-Glo® Reagent) directly to cells cultured in serum-supplemented medium. Cell washing, removal of medium or multiple pipetting steps are not required. The Cell Titer-Glo® Luminescent Cell Viability Assay, including reagents and protocol are commercially available (Promega Corp., Madison, WI, Technical Bulletin TB288).
The assay assesses the ability of compounds to enter cells and inhibit cell proliferation. The assay principle is based on the determination of the number of viable cells present by quantitating the ATP present in a homogenous assay where addition of the Cell Titer-Glo® reagent results in cell lysis and generation of a luminescent signal through the luciferase reaction. The luminescent signal is proportional to the amount of ATP present.
Cell Culture Medium: RPMI or DMEM high glucose, 10% Fetal Bovine Serum, 2 mM L-Glutamine, P/S. Incubate O/N (overnight) at 37° C., 5% CO2.
Day 2—Add Drug to Cells, Compound Dilution, DMSO Plates (serial 1:2 for 9 points). Add 20 μl of compound at 10 mM in the 2nd column of 96 well plate. […] Add 147 μl of Media into all wells. Transfer 3 μl of DMSO+ compound from each well in the DMSO Plate to each corresponding well on Media Plate using Rapidplate® (Caliper, a Perkin-Elmer Co.). For 2 drug combination studies, transfer one drug 1.5 μl of DMSO+ compound from each well in the DMSO Plate to each corresponding well on Media Plate using Rapidplate. Then, transfer another drug 1.5 μl to the medium plate.
Drug Addition to Cells, Cell Plate (1:10 dilution): Add 6 μl of media+ compound directly to cells (54 μl of media on the cells already). Incubate 3 days at 37° C., 5% CO2 in an incubator that will not be opened often.
Day 5—Develop Plates, Thaw Cell Titer Glo Buffer at room temperature: Remove Cell Plates from 37° C. and equilibrate to room temperature for about 30 minutes. Add Cell Titer-Glo® Buffer to Cell Titer-Glo® Substrate (bottle to bottle). Add 30 μl Cell Titer-Glo® Reagent (Promega cat. #G7572) to each well of cells. Place on plate shaker for about 30 minutes. Read luminescence on Analyst HT Plate Reader (half second per well).
Cell viability assays and combination assays: Cells were seeded at 1000-2000 cells/well in 384-well plates for 16 h. On day two, nine serial 1:2 compound dilutions were made in DMSO in a 96 well plate. The compounds were further diluted into growth media using a Rapidplate® robot (Zymark Corp., Hopkinton, MA). The diluted compounds were then added to quadruplicate wells in 384-well cell plates and incubated at 37° C. and 5% CO2. After 4 days, relative numbers of viable cells were measured by luminescence using Cell Titer-Glo® (Promega) according to the manufacturer's instructions and read on a Wallac Multilabel Reader® (PerkinElmer, Foster City). EC50 values were calculated using Prism® 4.0 software (GraphPad, San Diego).
5 ul of each individual compound concentration and each control compound was transferred to the cell plate. Fulvestrant was added to control wells at a final concentration of 100 nM). DMSO was added to negative control wells (0.2% v/v).
As usually defined, the EC50 is the concentration that produces a half-maximal response. With `C[C@@H]1Cc2c([nH]c3ccccc23)[C@@H](c2ncc(OCCN3CC(CF)C3)cc2F)N1CC(C)(C)F` [Example 112, (1S,3R)-2-(2-fluoro-2-methylpropyl)-1-(3-fluoro-5-(2-(3-(fluoromethyl)azetidin-1-yl)ethoxy)pyridin-2-yl)-3-methyl-2,3,4,9-tetrahydro-1H-pyrido[3,4-b]indole], the concentration giving a half-maximal response (EC50) was 0.092 nM.

The same assay, now with this note: Homo sapiens, MCF7, MCF7 cells; Table 2.
Regarding `C[C@@H]1Cc2c([nH]c3ccccc23)[C@@H](c2c(F)cc(OC3CNC3)cc2F)N1CC(C)(C)F` [Example 132, (1R,3R)-1-[4-(azetidin-3-yloxy)-2,6-difluoro-phenyl]-2-(2-fluoro-2-methyl-propyl)-3-methyl-1,3,4,9-tetrahydropyrido[3,4-b]indole], the EC50 was found to be 0.31 nM.

Take `C[C@@H]1Cc2c([nH]c3ccccc23)[C@@H](c2c(F)cc(NC3CN(CCCF)C3)cc2F)N1C[C@@](C)(F)CO` [Example 288, (R)-3-((1R,3R)-1-(2,6-difluoro-4-((1-(3-fluoropropyl)azetidin-3-yl)amino)phenyl)-3-methyl-1,3,4,9-tetrahydro-2H-pyrido[3,4-b]indol-2-yl)-2-fluoro-2-methylpropan-1-ol]: the EC50 is 0.0528 nM.

Turning to `C[C@@H]1Cc2c([nH]c3ccccc23)[C@@H](c2c(F)cc(NCCN3CC(CF)C3)cc2F)N1CC(F)(F)F` [Example 296, 3,5-difluoro-N-(2-(3-(fluoromethyl)azetidin-1-yl)ethyl)-4-((1R,3R)-3-methyl-2-(2,2,2-trifluoroethyl)-2,3,4,9-tetrahydro-1H-pyrido[3,4-b]indol-1-yl)aniline], the EC50 worked out at 0.2 nM.

Regarding `C[C@@H]1Cc2c([nH]c3ccccc23)[C@@H](c2c(F)cc(OC3CN(CCCF)C3)cc2F)N1CC1(CF)CC1` [Example 227], the EC50 is 0.17 nM.

For `C[C@@H]1Cc2c([nH]c3ccccc23)[C@@H](c2c(F)cc(OCCN3CC(CF)C3)cc2F)N1CC1(C)CCC1` [Example 173, (1R,3R)-1-[2,6-difluoro-4-[2-[3-(fluoromethyl)azetidin-1-yl]ethoxy]phenyl]-3-methyl-2-[(1-methylcyclobutyl)methyl]-1,3,4,9-tetrahydropyrido[3,4-b]indole], the EC50 was found to be 1 nM.

Consider `C[C@@H]1Cc2c([nH]c3ccccc23)[C@@H](c2ccc(OC3CN(CCCF)C3)cc2)N1CC(C)(C)F` [Example 201, (1R,3R)-2-(2-fluoro-2-methyl-propyl)-1-[4-[1-(3-fluoropropyl)azetidin-3-yl]oxyphenyl]-3-methyl-1,3,4,9-tetrahydropyrido[3,4-b]indole], for which the EC50 is 0.315 nM.

Consider `C[C@@H]1Cc2c([nH]c3ccccc23)[C@@H](c2c(F)cc(OC3CN(CCC4CC4)C3)cc2F)N1CC(C)(C)F` [Example 187, (1R,3R)-1-[4-[1-(2-cyclopropylethyl)azetidin-3-yl]oxy-2,6-difluoro-phenyl]-2-(2-fluoro-2-methyl-propyl)-3-methyl-1,3,4,9-tetrahydropyrido[3,4-b]indole], for which the 50% effective concentration (EC50) was found to be 1 nM.

`C[C@@H]1Cc2c([nH]c3ccc(F)cc23)[C@@H](c2c(F)cc(OCCN3CC(CF)C3)cc2F)N1CC(C)(C)F` [Example 241, (1R,3R)-1-(2,6-difluoro-4-(2-(3-(fluoromethyl)azetidin-1-yl)ethoxy)phenyl)-6-fluoro-2-(2-fluoro-2-methylpropyl)-3-methyl-2,3,4,9-tetrahydro-1H-pyrido[3,4-b]indole]: the EC50 turned out to be 0.381 nM.

In the case of `CC(C)(F)CN1[C@H](CF)Cc2c([nH]c3ccccc23)[C@H]1c1c(F)cc(OC2CN(CCCF)C2)cc1F` [Example 301, (1R,3S)-1-(2,6-difluoro-4-((1-(3-fluoropropyl)azetidin-3-yl)oxy)phenyl)-2-(2-fluoro-2-methylpropyl)-3-(fluoromethyl)-2,3,4,9-tetrahydro-1H-pyrido[3,4-b]indole], the EC50 is 0.0881 nM.

As for `CC(C)CN1[C@H](c2c(F)cc(OCCN3CC(CF)C3)cc2F)c2[nH]c3ccccc3c2C[C@H]1C` [Example 197, (1R,3R)-1-[2,6-difluoro-4-[2-[3-(fluoromethyl)azetidin-1-yl]ethoxy]phenyl]-2-isobutyl-3-methyl-1,3,4,9-tetrahydropyrido[3,4-b]indole], the half-maximal effective concentration (EC50) was 1 nM.

Consider `C[C@@H]1Cc2c([nH]c3ccccc23)[C@H](c2c(F)cc(OCCN3CC(CF)C3)cc2F)N1CC(F)F` [Example 306, (1S,3R)-2-(2,2-difluoroethyl)-1-[2,6-difluoro-4-[2-[3-(fluoromethyl)azetidin-1-yl]ethoxy]phenyl]-3-methyl-1,3,4,9-tetrahydropyrido[3,4-b]indole], for which the EC50 was 3 nM.

With `C[C@@H]1Cc2c([nH]c3ccccc23)[C@@H](c2c(F)cc(OC3CN(C(=O)OC(C)(C)C)C3)cc2F)N1CC(C)(C)F` [Example 170, tert-butyl 3-[3,5-difluoro-4-[(1R,3R)-2-(2-fluoro-2-methyl-propyl)-3-methyl-1,3,4,9-tetrahydropyrido[3,4-b]indol-1-yl]phenoxy]azetidine-1-carboxylate], the concentration for a half-maximal effect (EC50) came out at 1 nM.

As for `C=CCN1CC(Oc2cc(F)c([C@@H]3c4[nH]c5ccccc5c4C[C@@H](C)N3CC(C)(C)F)c(F)c2)C1` [Example 188, (1R,3R)-1-[4-(1-allylazetidin-3-yl)oxy-2,6-difluoro-phenyl]-2-(2-fluoro-2-methyl-propyl)-3-methyl-1,3,4,9-tetrahydropyrido[3,4-b]indole], the EC50 worked out at 0.128 nM.

In the case of `C[C@@H]1Cc2c([nH]c3ccccc23)[C@@H](c2ccc(OCCN3CC(CF)C3)cc2Cl)N1CC(C)(C)F` [Example 210, (1R,3R)-1-[2-chloro-4-[2-[3-(fluoromethyl)azetidin-1-yl]ethoxy]phenyl]-2-(2-fluoro-2-methyl-propyl)-3-methyl-1,3,4,9-tetrahydropyrido[3,4-b]indole], the EC50 is 0.1 nM.

Consider `C[C@@H]1Cc2c([nH]c3ccccc23)[C@@H](c2ccc(OCCN3CC(CF)C3)cc2)N1S(C)(=O)=O` [Example 180, (1R,3R)-1-(4-(2-(3-(fluoromethyl)azetidin-1-yl)ethoxy)phenyl)-3-methyl-2-(methylsulfonyl)-2,3,4,9-tetrahydro-1H-pyrido[3,4-b]indole], for which the concentration for a half-maximal effect (EC50) was determined as 0.222 nM.

For the compound `C[C@@H]1Cc2c([nH]c3ccccc23)[C@H](c2ccc(OCCN3CC(CF)C3)c(F)c2)N1CC(C)(C)F` [Example 280, (1S,3R)-2-(2-fluoro-2-methylpropyl)-1-(3-fluoro-4-(2-(3-(fluoromethyl)azetidin-1-yl)ethoxy)phenyl)-3-methyl-2,3,4,9-tetrahydro-1H-pyrido[3,4-b]indole], the EC50 worked out at 6 nM.

`C[C@@H]1Cc2c([nH]c3ccccc23)[C@@H](c2c(F)cc(OCCN3CC(CF)C3)cc2F)N1CC1CC(F)(F)C1` [Example 146, (1R,3R)-2-[(3,3-difluorocyclobutyl)methyl]-1-[2,6-difluoro-4-[2-[3-(fluoromethyl)azetidin-1-yl]ethoxy]phenyl]-3-methyl-1,3,4,9-tetrahydropyrido[3,4-b]indole]: the half-maximal effective concentration (EC50) was determined as 10 nM.

`C[C@@H]1Cc2c([nH]c3ccccc23)[C@@H](c2ccc(OCCN3CC(CF)C3)cc2)N1CC(C)(C)F` [Example 156, (1R,3R)-1-[4-[2-[3-(fluoromethyl)azetidin-1-yl]ethoxy]phenyl]-2-(2-fluoro-2-methyl-propyl)-3-methyl-1,3,4,9-tetrahydropyrido[3,4-b]indole]: the half-maximal effective concentration (EC50) is 0.335 nM.
